Assay results from PubChem BioAssay AID2060504 (Molecular Pharmacology Branch, DTP, NCI, 2025).

Tested on: 636577-100-R-J1-PDC complex spheroid viability
Assay: Anticancer human tumor 636577-100-R-J1-PDC patient-derived endometrial adenocarcinoma cell line growth inhibition [GQUAD]
Settings: for IC50: curve of first compound; for viability, T/C: stronger effect = lower value
From the text: DNA G-quadruplex Stabilizer Agents in Combinations in Complex Spheroids
A high-throughput screen of multi-cell type tumor spheroids was designed to identify active combinations of DNA G-quadruplex stabilizer agents and targeted small molecules. Complex spheroids include a stromal component modeled by human endothelial cells (HUVEC) and fibroblasts modeled by human mesenchymal stem cells (MSCs). The concentration ranges selected for each drug and investigational agent were based upon clinically achievable concentrations if the clinical Cmax of the agent was known.
Compounds. The drugs and investigational agents: pidnarulex (CX-5461; NSC782164), APTO-253 (NSC789042), BRACO-19 (NSC847499), peposertib (NSC802822), ceralasertib (NSC780249), elimusertib (NSC800525), camonsertib (NSC841442), AZD-1390 (NSC803789), olaparib (NSC753686), talazoparib (NSC767125), ART-558 (NSC835418), sotorasib (NSC818433), MRTX-1133 (NSC836407), SN-38 (NSC673596), topotecan (NSC609699), etoposide (NSC141540), doxorubicin (NSC123127), gemcitabine (NSC613327), 5-fluorouracil (NSC19893), paclitaxel (NSC125973), vemurafenib (NSC761431), panobinostat (NSC761190), R-306465 (JNJ-16241199; NSC773264), adavosertib (NSC754352), TP-3654 (NSC805149), carboplatin (NSC241240), KSQ-4279 (NSC840948), and staurosporine (NSC755774) were obtained from the National Cancer Institute (NCI) Developmental Therapeutics Program Chemical Repository (34). The FDA-approved anticancer drug set is available from the NCI Developmental Therapeutics Program. […] The stock solutions were prepared in dimethyl sulfoxide (DMSO, Sigma-Aldrich, St. Louis, MO, cat. D2650) at 800-fold the tested concentration and stored at -70 degrees C prior to their use. All drugs and investigational agents were tested over a range starting from a high concentration at or near the clinical Cmax and decreasing in half-log increments. If the clinical Cmax for an agent had not been determined, the highest concentration tested was 10 microM.
2.3 Cell Culture. All cells were maintained in an incubator at 37 degrees C and 5% CO2 with 95% humidity. The PDC lines were cultured according to standard operating procedures established by the NCI PDMR. All PDCs were thawed and cultured in Matrigel-coated flasks prepared with a working solution of 1X Ham's F-12 nutrient mix, without supplementation (Invitrogen, cat. 11765054), 100 U/mL penicillin-streptomycin (Invitrogen, cat. 15140122), and 2.5% Matrigel (Corning Inc., cat. 354248) for the first three passages. The 857933-349-R-J2-PDC line was cultured in 6C/Colon 1B media, which includes advanced DMEM/F-12 (Thermo Fisher Scientific, cat. 12634028), 10 mM HEPES (Thermo Fisher Scientific, cat. 15630080), 1X GlutaMAX supplement (Thermo Fisher Scientific, cat. 35050061), 0.1 mg/mL primocin (InvivoGen, cat. ant-pm-2), 10% defined fetal bovine serum, heat inactivated (HyClone Laboratories Inc., cat. SH30070.03HI), 50% L-WRN conditioned media (ATCC, cat. CRL-3276), 1.25 mM N-Acetyl-L-cysteine (Sigma-Aldrich, cat. A9165), 10 mM nicotinamide (Sigma-Aldrich, cat. N0636), 1X B-27 supplement (Thermo Fisher Scientific, cat. 17504044), 1X N-2 supplement (Thermo Fisher Scientific, cat. 17502048), 10 microM Y-27632 dihydrochloride (Tocris Bioscience, cat. 1254), and 50 ng/mL human EGF recombinant protein (Thermo Fisher Scientific, cat. PHG0311). The 485176-168-R4-J1-PDC line was cultured in Panc media, which includes all 6C/Colon 1B media components plus 100 ng/mL human FGF-10 (Thermo Fisher Scientific, cat. 100-26), 500 nM SB-431542 (Selleckchem, cat. S1067), and gastrin (Tocris, cat. 3006).
[…]

[1] = second compound 0.0316 µM, first compound 0.000999 µM
[2] = second compound 0.0316 µM, first compound 0.00316 µM
[3] = second compound 0.0316 µM, first compound 0.00999 µM
[4] = second compound 0.0316 µM, first compound 0.0316 µM
[5] = second compound 0.0316 µM, first compound 0.0999 µM
[6] = second compound 0.0316 µM, first compound 0.316 µM
[7] = second compound 0.1 µM, first compound 0.000999 µM
[8] = second compound 0.1 µM, first compound 0.00316 µM
[9] = second compound 0.1 µM, first compound 0.00999 µM
[10] = second compound 0.1 µM, first compound 0.0316 µM
[11] = second compound 0.1 µM, first compound 0.0999 µM
[12] = second compound 0.1 µM, first compound 0.316 µM
[13] = second compound 0.316 µM, first compound 0.000999 µM
[14] = second compound 0.316 µM, first compound 0.00316 µM
[15] = second compound 0.316 µM, first compound 0.00999 µM
[16] = second compound 0.316 µM, first compound 0.0316 µM
[17] = second compound 0.316 µM, first compound 0.0999 µM
[18] = second compound 0.316 µM, first compound 0.316 µM
[19] = second compound 1 µM, first compound 0.000999 µM
[20] = second compound 1 µM, first compound 0.00316 µM
[21] = second compound 1 µM, first compound 0.00999 µM
[22] = second compound 1 µM, first compound 0.0316 µM
[23] = second compound 1 µM, first compound 0.0999 µM
[24] = second compound 1 µM, first compound 0.316 µM
[25] = second compound 3.16 µM, first compound 0.000999 µM
[26] = second compound 3.16 µM, first compound 0.00316 µM
[27] = second compound 3.16 µM, first compound 0.00999 µM
[28] = second compound 3.16 µM, first compound 0.0316 µM
[29] = second compound 3.16 µM, first compound 0.0999 µM
[30] = second compound 3.16 µM, first compound 0.316 µM
[31] = second compound 10 µM, first compound 0.000999 µM
[32] = second compound 10 µM, first compound 0.00316 µM
[33] = second compound 10 µM, first compound 0.00999 µM
[34] = second compound 10 µM, first compound 0.0316 µM
[35] = second compound 10 µM, first compound 0.0999 µM
[36] = second compound 10 µM, first compound 0.316 µM
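Note: viability read after seven days of drug exposure.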
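Throughout, for viability, T/C: luminescence signal used as a proxy for viable cells; 100% = DMSO vehicle control wells.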

## CC[C@@]1(O)C(=O)OCc2c1cc1n(c2=O)Cc2cc3c(CN(C)C)c(O)ccc3nc2-1 + CN(C)c1ccc(Nc2c3ccc(NC(=O)CCN4CCCC4)cc3nc3cc(NC(=O)CCN4CCCC4)ccc23)cc1
Second compound 0.0316 µM
  IC50: 18.5 nM
Second compound 0.1 µM
  IC50: 18.6 nM
Second compound 0.316 µM
  IC50: 18.7 nM
Second compound 1 µM
  IC50: 11.8 nM
Second compound 3.16 µM
  IC50: < 0.999 nM
Second compound 10 µM
  IC50: < 0.999 nM
[1]
  viability, T/C: 108%
[2]
  viability, T/C: 75.3%
[3]
  viability, T/C: 72.1%
[4]
  viability, T/C: 37.2%
[5]
  viability, T/C: 21.1%
[6]
  viability, T/C: 27.1%
[7]
  viability, T/C: 88.6%
[8]
  viability, T/C: 74.7%
[9]
  viability, T/C: 74.2%
[10]
  viability, T/C: 29.5%
[11]
  viability, T/C: 22.3%
[12]
  viability, T/C: 23.6%
[13]
  viability, T/C: 77.8%
[14]
  viability, T/C: 65.9%
[15]
  viability, T/C: 62.7%
[16]
  viability, T/C: 41.5%
[17]
  viability, T/C: 22%
[18]
  viability, T/C: 23.9%
[19]
  viability, T/C: 64.3%
[20]
  viability, T/C: 96.1%
[21]
  viability, T/C: 54%
[22]
  viability, T/C: 30.4%
[23]
  viability, T/C: 24.4%
[24]
  viability, T/C: 22.7%
[25]
  viability, T/C: 34.8%
[26]
  viability, T/C: 45.4%
[27]
  viability, T/C: 37.6%
[28]
  viability, T/C: 26.2%
[29]
  viability, T/C: 21.2%
[30]
  viability, T/C: 20%
[31]
  viability, T/C: 6.05%
[32]
  viability, T/C: 6.87%
[33]
  viability, T/C: 5.66%
[34]
  viability, T/C: 4.71%
[35]
  viability, T/C: 5.96%
[36]
  viability, T/C: 4.24%

## CCc1c2c(nc3ccc(O)cc13)-c1cc3c(c(=O)n1C2)COC(=O)[C@]3(O)CC + CN(C)c1ccc(Nc2c3ccc(NC(=O)CCN4CCCC4)cc3nc3cc(NC(=O)CCN4CCCC4)ccc23)cc1
Second compound 0.0316 µM
  IC50: < 0.999 nM
Second compound 0.1 µM
  IC50: < 0.999 nM
Second compound 0.316 µM
  IC50: < 0.999 nM
Second compound 1 µM
  IC50: < 0.999 nM
Second compound 3.16 µM
  IC50: < 0.999 nM
Second compound 10 µM
  IC50: < 0.999 nM
[1]
  viability, T/C: 46.8%
[2]
  viability, T/C: 23.4%
[3]
  viability, T/C: 26%
[4]
  viability, T/C: 16.6%
[5]
  viability, T/C: 17.7%
[6]
  viability, T/C: 12.4%
[7]
  viability, T/C: 43.7%
[8]
  viability, T/C: 21.6%
[9]
  viability, T/C: 22.2%
[10]
  viability, T/C: 18.1%
[11]
  viability, T/C: 17%
[12]
  viability, T/C: 12.9%
[13]
  viability, T/C: 41.9%
[14]
  viability, T/C: 23.1%
[15]
  viability, T/C: 20.3%
[16]
  viability, T/C: 21.1%
[17]
  viability, T/C: 19.2%
[18]
  viability, T/C: 13.2%
[19]
  viability, T/C: 39.4%
[20]
  viability, T/C: 21.4%
[21]
  viability, T/C: 24.2%
[22]
  viability, T/C: 22.6%
[23]
  viability, T/C: 19.4%
[24]
  viability, T/C: 13.4%
[25]
  viability, T/C: 29.8%
[26]
  viability, T/C: 22%
[27]
  viability, T/C: 19.5%
[28]
  viability, T/C: 18.4%
[29]
  viability, T/C: 16.8%
[30]
  viability, T/C: 9.28%
[31]
  viability, T/C: 4.84%
[32]
  viability, T/C: 4.42%
[33]
  viability, T/C: 4.45%
[34]
  viability, T/C: 4.23%
[35]
  viability, T/C: 4.1%
[36]
  viability, T/C: 2.29%
